Laboratory results as given in US20110144331A1, “Cinnoline Compounds for the Treatment of Anxiety, Cognitive and Mood Disorders” (AstraZeneca AB, priority 2005, published 2011).

What was measured:
[1] = molecular target: human Melatonin receptor 1 (MT1) (Homo sapiens, UniProt P48039); assay: MT1 GTPγ35S-SPA Assay (Method II); conditions: compound used for normalization
Experimental: Solid compounds were solubilized at 10 mM in DMSO; then 1:3 further diluted in DMSO in 96-well U-bottom plates using PlateMate on the assay day. 2 μl of diluted compounds were transferred to Opti-assay-plates.
The cell pellets were homogenized using Polytron; and the cell membranes were prepared fro GTPγS assay.
The cell pellets were homogenized with Polytron in ice-cold buffer: 20 mM HEPES, 3 mM MgCl2, 1 mM EGTA, pH7.4. (Freshly add protease inhibitor cocktail tables from Roche). The samples were centrifuged at 18,500 rpm for 30 mins at 4° C. in Sorvall SS-34 rotor. The membrane pellets were collected and washed with the ice-cold buffer. The samples were centrifuged at 18,500 rpm for 30 mins at 4° C. again. The membranes were resuspended in the ice-cold buffer with protease inhibitors. The protein concentration of the membrane was determined. The membranes were aliquoted and stored at −80° C.
Human MT1/HEK293 F membrane (10 μg/well) was mixed with WGA-SPA beads (300 μg/well) and GDP (10 μM) in certain volume of Lazareno assay buffer (20 mM HEPES, 100 mM NaCl, 10 mM MgCl2, pH7.4). […] The assay plates were measured in TopCount to capture the data within 4 hours. […]
Compounds were evaluated for their agonist potency (EC50) and efficacy (Emax). […] Compound's % activity was calculated according to the 100% and 0% activities defined on the same plate as the sample data. […]

MT1 Receptor = MT1 Receptor (Homo sapiens, UniProt P48039); assay: MT1 Receptor Binding
[2] = molecular target: T1, human α2β3γ2 GABAA receptor (Homo sapiens, UniProt P18507+P47869); assay: Two-electrode voltage-clamp in Xenopus oocytes, potentiation of GABA EC10 current, GABAA2; format: cell-based; conditions: percentage potentiation of GABA EC10 current divided by that of diazepam control
T1 construct: expressed in transfected cells; host or cells: Xenopus laevis oocytes injected with capped cRNA (α:β:γ 1:1:1)
Experimental: (§1) GABAA receptors were heterologously expressed in Xenopus oocytes by injecting cRNA corresponding to human α1, α2, α3, α5, β2, β3 and γ2 subunits of the GABAA receptor genes. The specific subunit combinations (subtypes) were as follows: α1β2γ2, α2β3γ2, α3β3γ2, and α5β3γ2. The EC10 of GABA was approximated for each cell. Stability of GABA-mediated (EC10) current was established. Modulatory effect of test compound was determined and compared across subtypes. […] Thus, the assay can characterize modulatory effects and determine subtype selectivity of test compounds on major subtypes of GABAA receptors.
(§2) Surgically removed ovarian lobes were teased out in OR2 solution (82 NaCl, 2.5 KCl, 5 HEPES, 1.5 NaH2PO4, 1 MgCl2, 0.1 EDTA, in mM, pH 7.4). The oocytes were defolliculated by incubation in 25 mL OR2 containing 0.2% collagenase 1A (SIGMA) two times for about 60 minutes on a platform shaker and stored in Leibovitz's L-15 medium. Oocytes were injected the following day in 0.5× Leibovitz's L-15 medium containing […] gentamycin, 10 units/ml penicillin, and […] streptomycin.
(§3) Capped cRNAs from the linearized vectors containing human α1, β2 and γ2 subunits of the GABAA receptor genes were mixed in ratio of 1:1:30. Oocytes were injected with 25-50 nL of mixed RNA with an appx molar ratio for α1, β2, and γ2 as 1:1:10. Oocyte recordings were done 2-10 days after injection. The same methods apply to subtypes derived from α2β2γ2, α3β3γ2, and α5β3γ2, except for 1:1:1 ratio was used for α, β, and γ subunits.
(§4) All measurements were done in a medium containing ND-96 (96 NaCl, 2 KCl, 1.8 CaCl2.2H2O, 1 MgCl2.6H2O, 5 HEPES, in mM, pH 7.5). Two-electrode voltage-clamp recording was carried out using OpusXpress amplifier (Axon Instruments, Foster City, Calif.), which allows simultaneous recording from 8 oocytes. Oocytes were impaled with two electrodes of 1-2 MΩ tip resistance when filled with 3M KCl. Recordings were begun when membrane potential became stable at potentials negative to −50-−60 mV. Membrane potential was held at −60 mV. […] The concentration of GABA corresponded to the EC10 value calculated for each oocyte. The modulator pulses started 30 s before the GABA pulse so as to allow preincubation with the modulator. A set of 3 pulses with just GABA without modulator was given prior to the modulator-containing pulses to define the baseline GABA response. Two oocytes per each experiment were dedicated to observe the effect of diazepam on GABA response to ensure the presence of γ2 subunit in the GABAA pentameric complex, which imparts diazepam sensitivity to the complex.
(§5) Current amplitude (i) was measured from baseline to peak using Clampfit (Axon Inst., Foster City, Calif.). Potentiation was calculated as percent change from the baseline GABA current flux 100×(imod/icontrol)−1) where imod=current mediated by modulator+GABA and icontrol=current mediated by GABA alone. […] Similarly, a value of −50% potentiation means the presence of modulator caused a 50% decrease in the control current. Various other data shown here were fitted and plotted using GraphPad Prism (GraphPad Software, Inc. San Diego, Calif.). The percentage potentiation was converted to relative potentiation by dividing it with percentage potentiation value obtained from the same assay with diazepam as a control.

[3] = molecular target: T2, human α1β2γ2 GABAA receptor (Homo sapiens, UniProt P14867+P18507); assay: Two-electrode voltage-clamp in Xenopus oocytes, potentiation of GABA EC10 current, GABAA1; format: cell-based; conditions: percentage potentiation of GABA EC10 current divided by that of diazepam control
T2 construct: expressed in transfected cells; host or cells: Xenopus laevis oocytes injected with capped cRNA
Experimental: as §1, §2, §3, §4, §5

T1 sequence (P47869 29-451): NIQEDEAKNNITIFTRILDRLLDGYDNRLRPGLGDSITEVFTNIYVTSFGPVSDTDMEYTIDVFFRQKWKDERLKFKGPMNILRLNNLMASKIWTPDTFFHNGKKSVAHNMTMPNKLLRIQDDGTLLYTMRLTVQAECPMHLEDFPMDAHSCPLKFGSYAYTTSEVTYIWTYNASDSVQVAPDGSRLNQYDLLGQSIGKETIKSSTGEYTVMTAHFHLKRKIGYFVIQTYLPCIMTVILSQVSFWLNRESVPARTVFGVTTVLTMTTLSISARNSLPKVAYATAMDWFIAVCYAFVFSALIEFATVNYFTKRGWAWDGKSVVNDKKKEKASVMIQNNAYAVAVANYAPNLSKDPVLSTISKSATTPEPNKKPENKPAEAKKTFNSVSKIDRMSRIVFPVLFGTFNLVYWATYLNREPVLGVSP
T1 sequence (P18507 40-475): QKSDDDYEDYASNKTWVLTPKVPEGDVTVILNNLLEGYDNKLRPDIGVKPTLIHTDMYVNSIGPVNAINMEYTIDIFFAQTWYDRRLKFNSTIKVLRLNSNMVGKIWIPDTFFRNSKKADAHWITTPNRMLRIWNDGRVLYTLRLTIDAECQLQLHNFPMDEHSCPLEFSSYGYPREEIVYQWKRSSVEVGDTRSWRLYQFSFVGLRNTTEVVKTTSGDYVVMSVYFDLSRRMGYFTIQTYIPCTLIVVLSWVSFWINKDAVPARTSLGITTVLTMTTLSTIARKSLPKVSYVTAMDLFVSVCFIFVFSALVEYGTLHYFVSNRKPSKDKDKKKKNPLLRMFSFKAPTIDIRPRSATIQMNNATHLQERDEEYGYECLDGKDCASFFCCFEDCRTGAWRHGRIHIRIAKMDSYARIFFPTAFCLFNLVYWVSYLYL
T1 sequence (P28472 26-473 partner): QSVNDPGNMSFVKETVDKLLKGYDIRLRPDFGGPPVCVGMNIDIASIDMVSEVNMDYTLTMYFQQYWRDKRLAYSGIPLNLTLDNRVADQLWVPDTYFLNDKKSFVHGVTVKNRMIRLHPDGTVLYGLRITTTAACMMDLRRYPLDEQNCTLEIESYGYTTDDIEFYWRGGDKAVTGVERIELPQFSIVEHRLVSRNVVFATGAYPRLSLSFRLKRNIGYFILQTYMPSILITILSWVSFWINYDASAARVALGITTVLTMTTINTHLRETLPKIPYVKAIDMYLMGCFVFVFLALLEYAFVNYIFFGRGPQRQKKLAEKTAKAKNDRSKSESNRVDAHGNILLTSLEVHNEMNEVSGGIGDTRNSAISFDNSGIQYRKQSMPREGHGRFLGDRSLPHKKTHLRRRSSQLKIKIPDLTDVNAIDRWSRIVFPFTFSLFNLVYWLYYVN
T2 sequence (P14867 28-456): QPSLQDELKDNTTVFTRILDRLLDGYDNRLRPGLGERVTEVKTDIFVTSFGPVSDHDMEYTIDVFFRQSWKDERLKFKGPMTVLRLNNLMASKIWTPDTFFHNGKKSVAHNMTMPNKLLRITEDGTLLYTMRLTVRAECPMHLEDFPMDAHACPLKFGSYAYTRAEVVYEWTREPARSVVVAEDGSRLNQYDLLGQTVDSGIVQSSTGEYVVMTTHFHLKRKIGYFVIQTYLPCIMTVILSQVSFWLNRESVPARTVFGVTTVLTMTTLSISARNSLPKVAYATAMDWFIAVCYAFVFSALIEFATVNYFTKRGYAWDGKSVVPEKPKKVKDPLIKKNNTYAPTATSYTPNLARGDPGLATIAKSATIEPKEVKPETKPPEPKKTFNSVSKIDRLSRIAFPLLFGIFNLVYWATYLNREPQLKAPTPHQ
T2 sequence (P47870 25-512 partner limits assumed): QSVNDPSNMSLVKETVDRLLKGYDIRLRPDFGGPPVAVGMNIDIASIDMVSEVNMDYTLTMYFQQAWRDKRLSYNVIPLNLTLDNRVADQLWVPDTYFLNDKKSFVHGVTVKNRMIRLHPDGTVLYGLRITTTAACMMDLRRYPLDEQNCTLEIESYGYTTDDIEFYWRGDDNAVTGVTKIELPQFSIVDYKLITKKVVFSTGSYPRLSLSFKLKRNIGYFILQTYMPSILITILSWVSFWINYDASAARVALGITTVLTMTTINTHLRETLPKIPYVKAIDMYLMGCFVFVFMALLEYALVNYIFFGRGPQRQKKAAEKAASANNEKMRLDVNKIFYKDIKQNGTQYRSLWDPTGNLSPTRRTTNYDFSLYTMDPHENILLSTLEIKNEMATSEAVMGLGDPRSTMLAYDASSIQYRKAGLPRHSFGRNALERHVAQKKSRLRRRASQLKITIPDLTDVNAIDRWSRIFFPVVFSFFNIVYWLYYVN
T2 sequence (P18507 40-475): as the sequence (P18507 40-475) above
MT1 Receptor, sequence (P48039 whole entry): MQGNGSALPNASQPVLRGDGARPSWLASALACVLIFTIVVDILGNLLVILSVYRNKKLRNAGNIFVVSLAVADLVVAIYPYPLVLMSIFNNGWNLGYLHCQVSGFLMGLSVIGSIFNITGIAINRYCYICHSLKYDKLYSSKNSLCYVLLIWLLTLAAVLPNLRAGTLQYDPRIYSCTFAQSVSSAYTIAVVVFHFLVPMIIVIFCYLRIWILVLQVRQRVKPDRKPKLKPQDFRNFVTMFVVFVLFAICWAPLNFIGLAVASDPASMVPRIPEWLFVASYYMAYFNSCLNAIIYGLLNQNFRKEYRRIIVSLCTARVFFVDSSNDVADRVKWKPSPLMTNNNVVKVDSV
human Melatonin receptor 1 (MT1), sequence (P48039 whole entry): as above

Row | Structure (SMILES) | EC100 concentration [1] [nM] | inhibition at 1 µM (MT1 Receptor) [%] | Relative Potentiation for GABAA2 [2] | Relative Potentiation for GABAA1 [3]
1 | COc1ccc2[nH]c(I)c(CCNC(C)=O)c2c1 [2-Iodomelatonin] | 3 | – | – | –
2 | CCCNC(=O)c1nnc2c(-c3c(F)cccc3OC)cccc2c1N [drawing 423] | – | 89 | – | –
3 | CCCNC(=O)c1nnc2c(-c3cnccc3OC)cccc2c1N | – | 82 | – | –
4 | CCCNC(=O)c1nnc2c(-c3cc(OC)c(OC)c(OC)c3)cccc2c1N | – | – | 0.67 | 0.4
5 | CCCNC(=O)c1nnc2c(-c3ccc(F)c(F)c3)cccc2c1N | – | – | 0.12 | −0.14
6 | CCCNC(=O)c1nnc2c(-c3ccncc3)cccc2c1N | – | – | 0.1 | −0.038
7 | CCCNC(=O)c1nnc2c(-c3cccc(C(=O)N4CCC4)c3)cccc2c1N | – | – | −0.0075 | 0.19
